SMILES,melting point [°C],log10 vapour pressure (mmHg),boiling point [°C],ready biodegradability,log10 Henry constant (atm·m³/mol),log10 Koa,log10 Koc (L/kg)
CC(C)(O)CC(C)(O)c1ccc(Cl)cc1 (configuration not stated),76.5,–,–,–,–,–,–
Clc1ccc(Oc2ccccc2Cl)cc1,–,-3.15,–,–,–,–,–
CC(C)(Oc1ccc(C2CC2(Cl)Cl)cc1)C(=O)O (configuration not stated),115,–,–,–,–,–,–
N#CCc1ccc(Br)cc1,48,–,–,–,–,–,–
ClC(Cl)=C(Cl)C(Cl)Cl,–,–,185,–,–,–,–
O=C(CCl)C(Cl)(Cl)Cl,65,–,183,–,–,–,–
Cc1cc(C)c(Cl)c(C)c1,–,–,205,–,–,–,–
N#Cc1ccco1,–,–,147,–,–,–,–
O=Cc1ccc(Br)o1,–,–,201,–,–,–,–
C=C(C)C(=O)OCc1ccccc1,–,–,–,readily biodegradable,–,–,–
CCCCC(O)C(=O)O (configuration not stated),61,-5.5,305,–,–,–,–
O=S(Cc1ccccc1)Cc1ccccc1,134,–,–,–,–,–,–
NC(=O)COC(=O)c1ccccc1,121,–,–,–,–,–,–
C=CCl,-154,3.47,-13.3,–,-1.56,–,–
CCOC(=O)CCC(=O)OCC,-21,-1.36,218,–,–,–,–
CCc1ccc(Br)cc1,-43.5,-0.155,204,–,–,–,–
Clc1ccc(Cl)c(-c2c(Cl)cccc2Cl)c1Cl,–,–,–,–,–,8.53,–
CCOc1ccc(C#N)cc1,61.5,–,258,–,–,–,–
CCC1COC(Cn2cncn2)(c2ccc(Cl)cc2Cl)O1 (configuration not stated),84,–,–,–,–,–,–
NC(=O)Nc1ccccc1,147,–,238,not readily biodegradable,–,–,1.35
CCNc1nc(NC(C)(C)C)nc(SC)n1,104,-5.77,–,not readily biodegradable,–,–,2.85
CCCC(C)(C)C(=O)Nc1ccc(Cl)cc1,87.5,–,–,–,–,–,–

SMILES,melting point [°C],log10 vapour pressure (mmHg),boiling point [°C],ready biodegradability,log10 Henry constant (atm·m³/mol),log10 Koa,log10 Koc (L/kg)
CCCCCC(C)(C)O,-50.4,–,156,–,–,–,–
CCCC[C@@H](O)CCC,–,-0.507,175,–,–,–,–
N#Cc1ccccc1CCl,61,–,252,–,–,–,–
CCCN(CCC)c1c([N+](=O)[O-])cc(C(C)C)cc1[N+](=O)[O-],–,-4.52,–,–,–,–,4
O=C(O)c1ccc(Cl)cc1[N+](=O)[O-],144,–,–,–,–,–,–
O=C1C=C(N2CC2)C(=O)C(N2CC2)=C1N1CC1,163,–,–,–,–,–,–
CCCC(C)(C)C(C)C,-117,0.993,138,–,–,–,–
O=C(O)c1cccc(C(=O)O)c1C(=O)O,200,–,–,–,–,–,–
C/C=C(\C)C(=O)OCC,–,–,156,–,–,–,–
CC(=O)NCc1c(I)c(NC(C)=O)c(I)c(C(=O)O)c1I,255,–,–,–,–,–,–
O=C1OC(c2ccc(O)cc2)(c2ccc(O)cc2)c2ccccc21,262,–,–,not readily biodegradable,–,–,–
CC(=O)Cc1ccco1,29,–,180,–,–,–,–
FCC(F)(F)OC(F)F,–,2.57,43,–,–,–,–
CC1(c2ccc(Oc3ccccc3)cc2)OC(=O)N(Nc2ccccc2)C1=O (configuration not stated),141,-8.32,–,–,–,–,–
C[Si](C)(C)O[Si](C)(C)O[Si](C)(C)O[Si](C)(C)O[Si](C)(C)O[Si](C)(C)C,-59,-1.53,246,–,–,–,–
CC(=O)OC(OC(C)=O)c1ccc([N+](=O)[O-])o1,91,–,–,–,–,–,–
C=C=C(C)C,-114,2.63,40.8,–,–,–,–
CCC(C)C(C)C(C)C (configuration not stated),–,0.955,139,–,–,–,–
COc1ccc(C(=O)c2cccc(C)c2)cc1C,62.3,–,–,–,–,–,–
Cc1nnc(NS(=O)(=O)c2ccc(N)cc2)s1,208,–,–,–,–,–,–
Cn1ccc(=O)[nH]c1=O,237,-3.29,–,–,–,–,–
NC(=O)c1ccc(Cl)cc1,174,–,–,–,–,–,–

SMILES,melting point [°C],log10 vapour pressure (mmHg),boiling point [°C],ready biodegradability,log10 Henry constant (atm·m³/mol),log10 Koa,log10 Koc (L/kg)
ClC=CCl,-57,2.3,55,not readily biodegradable,-2.39,–,–
O=C(Cc1ccccc1)OC(=O)Cc1ccccc1,73.3,–,–,–,–,–,–
CN(C(=O)Cl)c1ccccc1,88.5,–,280,–,–,–,–
O=c1[nH]c2ccccc2o1,138,–,335,–,–,–,–
CCCCCCCC(=O)CC,2.5,–,203,–,–,–,–
CC[Si](CC)(CC)O[Si](CC)(CC)CC,–,–,233,–,–,–,–
CSc1ccc(C(=O)O)cc1,194,–,–,–,–,–,–
CC(C)C1=CC2=CC[C@@H]3[C@](C)(CCC[C@@]3(C)C(=O)O)[C@H]2CC1,174,–,–,not readily biodegradable,–,–,–
CC1(C)OC(=O)CC(=O)O1,94,–,–,–,–,–,–
C=C(C)c1ccc(C)c2ccc(C=O)c-2c1,58,–,–,–,–,–,–
CCC=CC(C)=O,–,–,140,–,–,–,–
CC=CCc1ccccc1,–,–,176,–,–,–,–
NC(N)=Nc1nc(CSCCC(N)=NS(N)(=O)=O)cs1,164,–,–,–,–,–,–
CC1=C(O)C(=O)C(C)O1 (configuration not stated),80.5,–,–,–,–,–,–
ClC(Cl)Br,-57,–,90,readily biodegradable,-2.67,–,1.78
FC(F)(F)C(Cl)Cl,-107,2.86,27,not readily biodegradable,-1.59,–,–
Cc1cc(N)cc(C)n1,192,–,246,–,–,–,–
C[C@H](O)[C@H](O)[C@@H](O)[C@@H](O)C=O,135,–,–,–,–,–,–
O=C1CCSc2ccccc21,29,–,–,–,–,–,–
CC(C)NNC(=O)COc1ccc(Cl)cc1,93.5,–,–,–,–,–,–
NC(=S)NS(=O)(=O)c1ccc(N)cc1,182,–,–,–,–,–,–
Cc1ccc(NC(O)=NC(C)(C)c2ccccc2)cc1,203,-8.47,–,–,–,–,–

# Reference: the OPERA property sets (Mansouri et al. 2018)
